# Structures can show the parent of a compound that is named as a salt.
# Assay: Water uptake and stability of the succinate salt under relative humidity
# Format: physicochemical
# Details: about 20° C. to about 30° C.
# Procedure: To a suspension of NaH (40.9 g, 1.02 mol, 60% in oil) in anhydrous THF (750 mL) is added 3-methylamino-propan-1-ol (115 g, 1.21 mol) at about 20-30° C. dropwise over 30 min. The mixture is stirred for 30 min. Then, a solution of [5-chloro-6-(2,4,6-trifluoro-phenyl)-[1,2,4]triazolo[1,5-a]pyrimidin-7-yl]-((1S)-2,2,2-trifluoro-1-methyl-ethyl)-amine (150 g, 0.379 mol) in THF (150 mL) is added slowly over 15 min. The mixture is heated to 60° C. and stirred for 16 h, then cooled to 0-6° C. Cold water (1500 mL) is added dropwise while maintain the temperature between 10±3° C. THF is removed by distillation. The reaction mixture is extracted with t-butylmethyl ether (TBME, 2×1000 mL) and to the separated aqueous phase is added in portions succinic acid (296 g, 2.51 mol) is added in portions and followed by addition of TBME (1000 mL). The mixture is cooled to 3±3° C. and stirred for 1 h. The crude solid product is filtered, washed with cold water (150 mL) and TBME (2×400 mL). The wet solid is dissolved into water (2000 mL) at about 75° C. The solution is filtered at 60-70° C. and cooled to 0° C. over 1 h and stirred for 1 h at this temperature. The solid is filtered and dried at 35° C./10 mmHg for 20 h to give a white solid in anhydrous form (175 g, 80%, >99% HPLC area purity and 99% ee). […]
structure (smiles),measurement,setting,value
"CNCCCOc1cc(F)c(-c2c(Cl)nc3ncnn3c2N[C@@H](C)C(F)(F)F)c(F)c1 [Example 4, 5-Chloro-6-{2,6-difluoro-4-[3-(methylamino)propoxy]phenyl}-N-[(1S)-2,2,2-trifluoro-1-methylethyl][1,2,4]triazolo[1,5-a]pyrimidin-7-amine Succinate Salt Dihydrate]",stability of the dihydrate,5%-100% relative humidity,stable
same,water absorbed by the anhydrous compound,"anhydrous succinate salt, drying dish of 80%-100% relative humidity, 24 h, uptake then stopped",5.8 % wt

# Source: patent US7396835B2, “Process for the preparation of tubulin inhibitors” (Wyeth, priority 2003, dated 2008)
